Data taken from ChEMBL document CHEMBL2413072, “Synthesis and in vitro anticancer studies of novel C-2 arylidene congeners of lantadenes” (2013).

Key:
Format in all cases: functional
A498 [1] = experiment: Growth inhibition of human A498 cells assessed as cell growth at 10^-8 M by sulforhodamine B assay; conditions: read-out: Activity
HOP-92 = experiment: Growth inhibition of human HOP92 cells by sulforhodamine B assay
A498 [2] = experiment: Growth inhibition of human A498 cells assessed as cell growth at 10^-6 M by sulforhodamine B assay; conditions: read-out: Activity
SF-268 = experiment: Growth inhibition of human SF268 cells assessed as cell growth at 10^-6 M by sulforhodamine B assay; conditions: read-out: Activity
HCT-116 = experiment: Growth inhibition of human HCT116 cells assessed as cell growth at 10^-8 M by sulforhodamine B assay; conditions: read-out: Activity
HL-60(TB) [3] = experiment: Growth inhibition of human HL-60(TB) cells assessed as cell growth at 10^-6 M by sulforhodamine B assay; conditions: read-out: Activity
K562 = experiment: Growth inhibition of human K562 cells assessed as cell growth at 10^-8 M by sulforhodamine B assay; conditions: read-out: Activity
KM12 = experiment: Growth inhibition of human KM12 cells assessed as cell growth at 10^-8 M by sulforhodamine B assay; conditions: read-out: Activity
OVCAR-3 = experiment: Growth inhibition of human OVCAR3 cells assessed as cell growth at 10^-8 M by sulforhodamine B assay; conditions: read-out: Activity
SR = experiment: Growth inhibition of human SR cells assessed as cell growth at 10^-8 M by sulforhodamine B assay; conditions: read-out: Activity
RPMI-8226 = experiment: Growth inhibition of human RPMI8226 cells assessed as cell growth at 10^-4 M by sulforhodamine B assay; conditions: read-out: Activity
SK-OV-3 [4] = experiment: Growth inhibition of human SKOV3 cells assessed as cell growth at 10^-4 M by sulforhodamine B assay; conditions: read-out: Activity
UACC-257 = experiment: Growth inhibition of human UACC257 cells by sulforhodamine B assay
MDA-MB-435 = experiment: Growth inhibition of human MDA-MB-435 cells assessed as cell growth at 10^-6 M by sulforhodamine B assay; conditions: read-out: Activity
OVCAR-4 = experiment: Growth inhibition of human OVCAR4 cells assessed as cell growth at 10^-8 M by sulforhodamine B assay; conditions: read-out: Activity
CAKI-1 = experiment: Growth inhibition of human CAKI-1 cells assessed as cell growth at 10^-4 M by sulforhodamine B assay; conditions: read-out: Activity
SNB-19 = experiment: Growth inhibition of human SNB19 cells assessed as cell growth at 10^-8 M by sulforhodamine B assay; conditions: read-out: Activity
SF-539 = experiment: Growth inhibition of human SF539 cells assessed as cell growth at 10^-6 M by sulforhodamine B assay; conditions: read-out: Activity
SK-MEL-28 = experiment: Growth inhibition of human SK-MEL-28 cells assessed as cell growth at 10^-7 M by sulforhodamine B assay; conditions: read-out: Activity
SF-295 = experiment: Growth inhibition of human SF295 cells assessed as cell growth at 10^-4 M by sulforhodamine B assay; conditions: read-out: Activity
IGROV-1 = experiment: Growth inhibition of human IGROV1 cells by sulforhodamine B assay
786-0 [5] = experiment: Growth inhibition of human 786-0 cells assessed as cell growth at 10^-8 M by sulforhodamine B assay; conditions: read-out: Activity
SK-OV-3 [6] = experiment: Growth inhibition of human SKOV3 cells assessed as cell growth at 10^-8 M by sulforhodamine B assay; conditions: read-out: Activity
M14 [7] = experiment: Growth inhibition of human M14 cells by sulforhodamine B assay
NCI-H23 = experiment: Growth inhibition of human NCI-H23 cells assessed as cell growth at 10^-8 M by sulforhodamine B assay; conditions: read-out: Activity
786-0 [8] = experiment: Growth inhibition of human 786-0 cells by sulforhodamine B assay
UO-31 = experiment: Growth inhibition of human UO31 cells assessed as cell growth at 10^-6 M by sulforhodamine B assay; conditions: read-out: Activity
SK-MEL-5 = experiment: Growth inhibition of human SK-MEL-5 cells assessed as cell growth at 10^-6 M by sulforhodamine B assay; conditions: read-out: Activity
MDA-MB-231 = experiment: Growth inhibition of human MDA-MB-231 cells assessed as cell growth at 10^-7 M by sulforhodamine B assay; conditions: read-out: Activity
HOP-62 = experiment: Growth inhibition of human HOP62 cells assessed as cell growth at 10^-6 M by sulforhodamine B assay; conditions: read-out: Activity
[9] = Growth inhibition of human HCC2998 cells assessed as cell growth at 10^-8 M by sulforhodamine B assay; conditions: HCC 2998, read-out: Activity
CCRF-CEM = experiment: Growth inhibition of human CCRF-CEM cells by sulforhodamine B assay
M14 [10] = experiment: Growth inhibition of human M14 cells assessed as cell growth at 10^-7 M by sulforhodamine B assay; conditions: read-out: Activity
A549 = experiment: Growth inhibition of human A549/ATCC cells assessed as cell growth at 10^-7 M by sulforhodamine B assay; conditions: read-out: Activity
HL-60(TB) [11] = experiment: Growth inhibition of human HL-60(TB) cells assessed as cell growth at 10^-4 M by sulforhodamine B assay; conditions: read-out: Activity
TK-10 = experiment: Growth inhibition of human TK10 cells assessed as cell growth at 10^-8 M by sulforhodamine B assay; conditions: read-out: Activity
SK-MEL-2 = experiment: Growth inhibition of human SK-MEL-2 cells assessed as cell growth at 10^-4 M by sulforhodamine B assay; conditions: read-out: Activity
SNB-75 = experiment: Growth inhibition of human SNB75 cells by sulforhodamine B assay
NCI-H460 = experiment: Growth inhibition of human NCI-H460 cells by sulforhodamine B assay
DU-145 = experiment: Growth inhibition of human DU145 cells assessed as cell growth at 10^-8 M by sulforhodamine B assay; conditions: read-out: Activity
[12] = read-out: LC50 (the source's name)
[13] = read-out: pLC50 (the source's name) (converted)

CC1(C)C[C@@H](O)[C@]2(C(=O)O)CC[C@]3(C)C(=CC[C@@H]4[C@@]5(C)C/C(=C\C=C\c6ccccc6)C(=O)C(C)(C)[C@@H]5CC[C@]43C)[C@@H]2C1
growth at 0.01 µM (A498 [1]): 82%
GI50 (HOP-92; read-out: GI50): 1.92 µM
CC50 (HOP-92; [12]): 36.6 µM
TGI (HOP-92; read-out: TGI): 6.67 µM
GI50 (HOP-92; read-out: pGI50 (converted)): 1.91 µM
CC50 (HOP-92; [13]): 36.3 µM
TGI (HOP-92; read-out: pTGI (converted)): 6.61 µM
growth at 1 µM (A498 [2]): 80%
growth at 1 µM (SF-268): 90%
growth at 0.01 µM (HCT-116): 100%
growth at 1 µM (HL-60(TB) [3]): 112%
growth at 0.01 µM (K562): 114%
growth at 0.01 µM (KM12): 101%
growth at 0.01 µM (OVCAR-3): 102%
growth at 0.01 µM (SR): 107%
growth at 100 µM (RPMI-8226): -6%
growth at 100 µM (SK-OV-3 [4]): -84%
GI50 (UACC-257; read-out: GI50): 2.62 µM
CC50 (UACC-257; [12]): 35.1 µM
TGI (UACC-257; read-out: TGI): 9.01 µM
GI50 (UACC-257; read-out: pGI50 (converted)): 2.63 µM
CC50 (UACC-257; [13]): 35.5 µM
TGI (UACC-257; read-out: pTGI (converted)): 8.91 µM
growth at 1 µM (MDA-MB-435): 95%
growth at 0.01 µM (OVCAR-4): 100%
growth at 100 µM (CAKI-1): -49%
growth at 0.01 µM (SNB-19): 94%
growth at 1 µM (SF-539): 90%
growth at 0.1 µM (SK-MEL-28): 102%
growth at 100 µM (SF-295): -66%
GI50 (IGROV-1; read-out: GI50): 4.14 µM
CC50 (IGROV-1; [12]): 73.8 µM
TGI (IGROV-1; read-out: TGI): 14.4 µM
GI50 (IGROV-1; read-out: pGI50 (converted)): 4.17 µM
CC50 (IGROV-1; [13]): 74.1 µM
TGI (IGROV-1; read-out: pTGI (converted)): 14.5 µM
growth at 0.01 µM (786-0 [5]): 101%
growth at 0.01 µM (SK-OV-3 [6]): 96%
GI50 (M14 [7]; read-out: GI50): 3.74 µM
CC50 (M14 [7]; [12]): 52 µM
TGI (M14 [7]; read-out: TGI): 15.8 µM
GI50 (M14 [7]; read-out: pGI50 (converted)): 3.72 µM
CC50 (M14 [7]; [13]): 52.5 µM
TGI (M14 [7]; read-out: pTGI (converted)): 15.8 µM
growth at 0.01 µM (NCI-H23): 95%
GI50 (786-0 [8]; read-out: GI50): 3.44 µM
CC50 (786-0 [8]; [12]): 43.1 µM
TGI (786-0 [8]; read-out: TGI): 12.8 µM
GI50 (786-0 [8]; read-out: pGI50 (converted)): 3.47 µM
CC50 (786-0 [8]; [13]): 42.7 µM
TGI (786-0 [8]; read-out: pTGI (converted)): 12.9 µM
growth at 1 µM (UO-31): 92%
growth at 1 µM (SK-MEL-5): 95%
growth at 0.1 µM (MDA-MB-231): 102%
growth at 1 µM (HOP-62): 97%
growth at 0.01 µM [9]: 92%
GI50 (CCRF-CEM; read-out: GI50): 2.79 µM
CC50 (CCRF-CEM; [12]): > 100 µM
TGI (CCRF-CEM; read-out: TGI): 8.51 µM
GI50 (CCRF-CEM; read-out: pGI50 (converted)): 2.82 µM
CC50 (CCRF-CEM; [13]): > 100 µM
TGI (CCRF-CEM; read-out: pTGI (converted)): 8.51 µM
growth at 0.1 µM (M14 [10]): 95%
growth at 0.1 µM (A549): 95%
growth at 100 µM (HL-60(TB) [11]): -40%
growth at 0.01 µM (TK-10): 98%
growth at 100 µM (SK-MEL-2): -72%
GI50 (SNB-75; read-out: GI50): 4.27 µM
CC50 (SNB-75; [12]): 63.7 µM
TGI (SNB-75; read-out: TGI): 20.9 µM
GI50 (SNB-75; read-out: pGI50 (converted)): 4.27 µM
CC50 (SNB-75; [13]): 63.1 µM
TGI (SNB-75; read-out: pTGI (converted)): 20.9 µM
GI50 (NCI-H460; read-out: GI50): 2.67 µM
LC50 (NCI-H460; read-out: LC50): 44.1 µM
TGI (NCI-H460; read-out: TGI): 7.6 µM
GI50 (NCI-H460; read-out: pGI50 (converted)): 2.69 µM
LC50 (NCI-H460; read-out: pLC50 (converted)): 43.7 µM
TGI (NCI-H460; read-out: pTGI (converted)): 7.59 µM
growth at 0.01 µM (DU-145): 106%
